The record followed here is patent US11603368B2, “Fused thiophene derivatives and their uses” (ENYO PHARMA, priority 2018, dated 2023).

The subject of the first test is H1N1 (influenza A/New Caledonia/20/99). Nature of the test: Antiviral effect on A549 cells infected with H1N1. The format is cell-based, H1N1 A/New Caledonia/20/99 virus. The following applies: Human A549 cells, MOI of 0.1, 48 h post-infection, MUNANA hydrolysis readout. The protocol:
The antiviral effect of the compounds of the invention has been tested on A549 cell lines infected with H1N1 (influenza A/New Caledonia/20/99).
Human A549 cells (80,000 cells/well in a 96 well plate) were treated with a range of concentration of test molecules and immediately infected by H1N1 A/New Caledonia/20/99 virus (clinical isolate) at MOI of 0.1 in DMEM/1% Penicillin/streptomycin supplemented with 0.25 μg/ml TPCK trypsin (Sigma) and incubated at 37° C. in 5% CO2. 48 h post-infection, supernatants (25 μl) were collected and transferred into a 96-well black flat-bottom plate, mixed with 25 μl PBS with Ca++/Mg++(Thermo Fisher) and 50 μl of 2′-(4-Methylumbelliferyl)-α-D-N-acetylneuraminic acid sodium salt hydrate stock-solution (20 μM, MUNANA, Sigma). Plates were incubated 1 h at 37° C. and reaction is stopped by adding 100 μl of Stop Solution (glycine 0.1 M pH10.7/25% ethanol). The amount of fluorescent product released by MUNANA hydrolysis (4-MU) was measured in a Tecan spectrophotometer with excitation and emission wavelengths of 365 and 450 nm respectively.
In turn, `O=C(Nc1sc2c(c1C(=O)O)C1CCC2C1)c1ccccc1` (stereo not shown) [#28] came in with a half-inhibitory concentration (IC50) of 1270 nM.

Consider `O=C(Nc1sc2c(c1C(=O)O)CCC(c1ccccc1)C2)c1ccccc1` (stereo not shown) [#47A], for which the IC50 worked out at 40 nM.

`O=C(Nc1sc2c(c1C(=O)O)CCC(c1ccccc1)C2)c1ccccc1` (stereo not shown) [#47B] had a half-maximal inhibitory concentration (IC50) of 70 nM.

The compound `CC(C)(C)C1CCc2c(sc(NC(=O)c3ccccc3)c2C(=O)O)C1` (stereo not shown) [#66] registered an IC50 of 69.3 nM.

Turning to `CC(C)(C)C1CCc2c(sc(NC(=O)c3ccccc3)c2C(=O)O)C1` (stereo not shown) [#67], half-maximal inhibition (IC50) required 91.7 nM.

As to `CC(C)(C)C1CCc2c(sc(NC(=O)c3ccccc3F)c2C(=O)O)C1` (stereo not shown) [#73], the IC50 is 180 nM.

Compound `CC1CCCc2sc(NC(=O)c3ccccc3)c(C(=O)O)c21` (stereo not shown) [#79] gave an IC50 of 292 nM.

Still in this test, the particulars now being: Influenza A virus, H1N1, A549, 48 h, Human A549 cells, MOI of 0.1, 48 h post-infection, MUNANA hydrolysis readout.
The compound `COc1cccc(C(=O)Nc2sc3c(c2C(=O)O)CCC(C(C)(C)C)C3)c1` (stereo not shown) [#2] yielded an IC50 of 70 nM.

In turn, `COc1ccc(C(=O)Nc2sc3c(c2C(=O)O)CCC(C(C)(C)C)C3)cc1OC` (stereo not shown) [#3] had an IC50 of 55 nM.

Regarding `COc1cc(C(=O)Nc2sc3c(c2C(=O)O)CCC(C(C)(C)C)C3)cc(OC)c1OC` (stereo not shown) [#4], half-maximal inhibition (IC50) required 1070 nM.

For the compound `COc1ccc(C(=O)Nc2sc3c(c2C(=O)O)CCC(C(C)(C)C)C3)c(F)c1` (stereo not shown) [#5], the IC50 is 60 nM.

Compound `COc1ccc(C(=O)Nc2sc3c(c2C(=O)O)CCC(C(C)(C)C)C3)c(F)c1F` (stereo not shown) [#6] came in with a half-maximal inhibitory concentration (IC50) of 90 nM.

For `CC(C)(C)C1CCc2c(sc(NC(=O)c3ccc(OC(F)F)cc3)c2C(=O)O)C1` (stereo not shown) [#7], 34.6 nM corresponded to half-maximal inhibition (IC50).

Regarding `CC(C)(C)C1CCc2c(sc(NC(=O)c3ccc(OC(F)(F)F)cc3)c2C(=O)O)C1` (stereo not shown) [#8], the IC50 came out at 38.5 nM.

`CC(C)(C)C1CCc2c(sc(NC(=O)c3ccc(N4CCOCC4)cc3)c2C(=O)O)C1` (stereo not shown) [#9]: the IC50 stood at 70 nM.

In the case of `CC(C)(C)OC(=O)NCCCOc1ccc(C(=O)Nc2sc3c(c2C(=O)O)CCC(C(C)(C)C)C3)cc1` (stereo not shown) [#11], the IC50 amounted to 140 nM.

Compound `CC(C)(C)C1CCc2c(sc(NC(=O)c3ccc(OCCO)cc3)c2C(=O)O)C1` (stereo not shown) [#12] registered an IC50 of 450 nM.

On to `Cc1ccccc1C(=O)Nc1sc2c(c1C(=O)O)CCC(c1ccccc1)C2` (stereo not shown) [#45], for which the midpoint of inhibition, the IC50, lay at 338 nM.

Consider `COc1ccc(C(=O)Nc2sc3c(c2C(=O)O)CCC(c2ccccc2)C3)cc1OC` (stereo not shown) [#48], for which the IC50 turned out to be 90 nM.

`O=C(Nc1sc2c(c1C(=O)O)CCC(c1ccccc1)C2)c1ccc(O)cc1` (stereo not shown) [#49]: the IC50 is 410 nM.

As to `O=C(Nc1sc2c(c1C(=O)O)CCC(c1ccccc1)C2)c1ccc(OCCO)cc1` (stereo not shown) [#50], the IC50 stood at 90 nM.

Take `COCCOc1ccc(C(=O)Nc2sc3c(c2C(=O)O)CCC(c2ccccc2)C3)cc1` (stereo not shown) [#51]: half-maximal inhibition (IC50) required 38 nM.

`Cc1cc(F)ccc1N1CCc2c(sc(NC(=O)c3ccccc3)c2C(=O)O)C1` [#53] gave an IC50 of 140 nM.

`COc1ccc(C(=O)Nc2sc3c(c2C(=O)O)CCN(c2ccc(F)cc2C)C3)c(F)c1` [#55] gave an IC50 of 410 nM.

`O=C(Nc1sc2c(c1C(=O)O)CCN(c1ccc(F)cc1F)C2)c1ccccc1` [#56] came in with an IC50 of 150 nM.

On to `Cc1ccccc1N1CCc2c(sc(NC(=O)c3ccccc3)c2C(=O)O)C1` [#57], for which 210 nM corresponded to half-maximal inhibition (IC50).

`CC(C)(C)C1CCc2c(sc(NC(=O)c3ccc(F)cc3)c2C(=O)O)C1` (stereo not shown) [#68]: the IC50 was determined as 120 nM.

For the compound `CC1CCCc2sc(NC(=O)c3ccc(N4CCOCC4)cc3)c(C(=O)O)c21` (stereo not shown) [#70], inhibition was half-maximal at 146 nM (IC50).

In the case of `CC(C)(C)C1CCc2c(sc(NC(=O)c3ccccn3)c2C(=O)O)C1` (stereo not shown) [#72], the IC50 came out at 170 nM.

Consider `CC1CCCc2sc(NC(=O)c3ccc(OC(F)F)cc3)c(C(=O)O)c21` (stereo not shown) [#75], for which inhibition was half-maximal at 210 nM (IC50).

Take `COc1ccc(C(=O)Nc2sc3c(c2C(=O)O)C(C)CCC3)c(F)c1` (stereo not shown) [#76]: the IC50 is 218 nM.

`O=C(Nc1sc2c(c1C(=O)O)CCCC2)c1ccccc1` [#77]: the IC50 came to 260 nM.

Compound `COc1ccc(C(=O)Nc2sc3c(c2C(=O)O)C(C)CCC3)cc1OC` (stereo not shown) [#81] displayed an IC50 of 339 nM.

`CC(C)(C)C1CCc2c(sc(NC(=O)c3cccc(F)c3)c2C(=O)O)C1` (stereo not shown) [#83]: half-maximal inhibition (IC50) was put at 380 nM.
